Data published in US20140171358A1, “ANTIMICROBIAL COMPOSITIONS COMPRISING DGLA AND NEOMYCIN SULFATE AND METHODS OF USE THEREOF” (Dignity Sciences Limited, priority 2012, published 2014).

Legend:
Format in all cases: cell-based
[1] = tested on: E. faecalis; assay: paper disc corrected zone of inhibition (CZOI) on Mueller Hinton agar
Protocol: (§1) The compounds tested in Example 1 were tested to determine their capacity to inhibit the growth of a variety of Gram-negative bacteria, Gram-positive bactgeria, fungi and yeast. In an exemplary method, Mueller Hinton agar plates were streaked with 500 μL of a 10^5 colony-forming units/mL culture and allowed to dry for at least one minute. A sterile paper disc (6 mm diameter) was then placed in the middle of each plate using sterile forceps. Twenty microliters of a solution of a known concentration of a test compound in filter-sterilized 95% ethanol were pipetted onto each test plate. Two streaked plates served as positive inhibitory controls and contained 6 mm sterile paper discs with standard tetracycline solutions. Two additional plates served as negative inhibition controls and each contained 6 mm sterile paper discs with 20 μL of filter-sterilized 95% ethanol. Two more plates served as positive growth controls and contained no paper disc or added antibacterial agent. The plates were incubated at 32.5±2° C. for 24±4 hours, after which the corrected zone of inhibition (“CZOI”) was determined as follows: For each plate, the length Y2 and width X2 of the test sample (paper disc) and length Y1 and width X1 of the clear zone were measured (FIG. 1). The CZOI was calculated from these values as shown by the equation below: [formula]

[2] = tested on: C. striatum; assay: as above
Protocol: as §1

[3] = tested on: S. epidermidis; assay: as above
Protocol: as §1

[4] = tested on: C. albicans; assay: as above
Protocol: as §1

[5] = tested on: A. brasiliensis; assay: as above
Protocol: as §1

[6] = tested on: P. aeroginosa; assay: as above
Protocol: as §1

[7] = tested on: S. aureus; assay: as above
Protocol: as §1

[8] = tested on: E. coli; assay: as above
Protocol: as §1

[9] = tested on: K. pneumoniae; assay: as above
Protocol: as §1

[10] = tested on: P. acnes; assay: agar dilution method: growth index and MIC on P. acnes (single compounds and combinations)
Protocol: Several compounds including fatty acids such as DGLA, 15-OHEPA, and 15-HETrE were tested to determine their capacity to inhibit the growth of P. acnes. In an exemplary method, an agar dilution method was used to determine the minimum inhibitory concentration (MIC) of each tested compound. Briefly, the agar dilution method involved preparing a series of concentrations of each compound (e.g., nicotinamide, benzoyl peroxide, adapalene, metronidazole, DGLA, 15-OHEPA, and 15-HETrE) in a Reinforced Clostridial Agar (RCA) media that facilitates growth of P. acnes under anaerobic conditions. An inoculum of P. acnes was prepared by incubation of P. acnes for approximately seven days at 35-37° C. to achieve a ≧1.0 OD600 inoculum of P. acnes in RCM broth. A portion of this inoculum was then added to the surface of each plate as a 10 μL spot and incubated at 35-37° C. for 72 hours or more. Growth of P. acnes was then observed and compared to control plates in which no compound has been added, and positive inhibition plates prepared with erythromycin. […] The growth of P. acnes in the presence of nicotinamide, benzoyl peroxide, adapalene, metronidazole, DGLA, 15-OHEPA, and 15-HETrE was determined with varying concentrations of the compound (see, Table 2). Next, the MIC was determined as the concentration at which a marked reduction (+) occurs in the appearance of growth on the test plate (as per Clinical and Laboratory Standards Institute M11-A7). The compounds tested singly in Example 1 were tested in combination with one another to determine the capacity of the combination to inhibit the growth of P. acnes. In an exemplary method, the MIC was determined for each of the combination as described in Example 1. Briefly, test combinations included DGLA with nicotinamide, benzoyl peroxide, adapalene, or metronidazole; 15-HETrE with nicotinamide, benzoyl peroxide, adapalene, or metronidazole; and 15-OHEPA with nicotinamide, benzoyl peroxide, adapalene, or metronidazole. The tables below show the growth of P. acnes in the presence of 0.4 or 1.0 mg/mL DGLA with varying concentrations of nicotinamide, benzoyl peroxide, adapalene, or metronidazole (Table 3); the growth of P. acnes in the presence of 0.01 or 0.05 mg/mL 15-HETrE with varying concentrations of nicotinamide, benzoyl peroxide, adapalene, or metronidazole (Table 5); and the growth of P. acnes in the presence of 0.5 or 0.1 mg/mL 15-OHEPA with varying concentrations of nicotinamide, benzoyl peroxide, adapalene, or metronidazole (Table 7).

MIC ([10]; Cutibacterium acnes, compound alone, read-out: MIC (mg/mL) as per P-11-0007 or P-11-0008 Addendum A): 0.4 to 0.6 mg/mL
SMILES: CCCCC/C=C\C/C=C\C/C=C\CCCCCCC(=O)O [DGLA, cis-8,11,14-eicosatrienoic acid]
Average CZOI ([1]; 0.6 mg/mL): 3.25 mm
Average CZOI ([1]; 0.8 mg/mL): 3 mm
Average CZOI ([1]; 1.0 mg/mL): 5 mm
Average CZOI ([1]; 1.2 mg/mL): 2 mm
Average CZOI ([1]; 1.4 mg/mL): 1.75 mm
Lowest Concentration With Observed Inhibition ([1]; E. faecalis): 0.6 mg/mL
Most Effective Concentration Observed ([1]; E. faecalis): 1.0 mg/mL
Average CZOI ([2]; 0.6 mg/mL): 3.75 mm
Average CZOI ([2]; 0.8 mg/mL): 2.75 mm
Average CZOI ([2]; 1.0 mg/mL): 2 mm
Average CZOI ([2]; 1.2 mg/mL): 4.75 mm
Average CZOI ([2]; 1.4 mg/mL): 2.75 mm
Lowest Concentration With Observed Inhibition ([2]; C. striatum): 0.6 mg/mL
Most Effective Concentration Observed ([2]; C. striatum): 1.2 mg/mL
Average CZOI ([3]; 0.6 mg/mL): 4.75 mm
Average CZOI ([3]; 0.8 mg/mL): 3.25 mm
Average CZOI ([3]; 1.0 mg/mL): 6.5 mm
Average CZOI ([3]; 1.2 mg/mL): 3 mm
Average CZOI ([3]; 1.4 mg/mL): 1 mm
Lowest Concentration With Observed Inhibition ([3]; S. epidermidis): 0.6 mg/mL
Most Effective Concentration Observed ([3]; S. epidermidis): 1.0 mg/mL
Average CZOI ([4]; 0.6 mg/mL): 1 mm
Average CZOI ([4]; 0.8 mg/mL): 0.75 mm
Average CZOI ([4]; 1.0 mg/mL): 1.75 mm
Average CZOI ([4]; 1.2 mg/mL): 2 mm
Average CZOI ([4]; 1.4 mg/mL): 3 mm
Lowest Concentration With Observed Inhibition ([4]; C. albicans): 0.6 mg/mL
Most Effective Concentration Observed ([4]; C. albicans): 1.4 mg/mL
Average CZOI ([5]; 0.6 mg/mL): 1.5 mm
Average CZOI ([5]; 0.8 mg/mL): 4 mm
Average CZOI ([5]; 1.0 mg/mL): 2.75 mm
Average CZOI ([5]; 1.2 mg/mL): 1.75 mm
Average CZOI ([5]; 1.4 mg/mL): 2.25 mm
Lowest Concentration With Observed Inhibition ([5]; A. brasiliensis): 0.6 mg/mL
Most Effective Concentration Observed ([5]; A. brasiliensis): 0.8 mg/mL
Average CZOI ([6]; 0.6 mg/mL): 1 mm
Average CZOI ([6]; 0.8 mg/mL): 1 mm
Average CZOI ([6]; 1.0 mg/mL): 1 mm
Average CZOI ([6]; 1.2 mg/mL): 1 mm
Average CZOI ([6]; 1.4 mg/mL): 1 mm
Lowest Concentration With Observed Inhibition ([6]; P. aeroginosa): 0.6 mg/mL
Most Effective Concentration Observed ([6]; P. aeroginosa): 0.6 mg/mL
Average CZOI ([7]; 0.6 mg/mL): 1.25 mm
Average CZOI ([7]; 0.8 mg/mL): 3 mm
Average CZOI ([7]; 1.0 mg/mL): 3 mm
Average CZOI ([7]; 1.2 mg/mL): 3 mm
Average CZOI ([7]; 1.4 mg/mL): 2 mm
Lowest Concentration With Observed Inhibition ([7]; S. aureus): 0.6 mg/mL
Most Effective Concentration Observed ([7]; S. aureus): 0.8 mg/mL
Average CZOI ([8]; 0.6 mg/mL): 1 mm
Average CZOI ([8]; 0.8 mg/mL): 1 mm
Average CZOI ([8]; 1.0 mg/mL): 1.5 mm
Average CZOI ([8]; 1.2 mg/mL): 0.5 mm
Average CZOI ([8]; 1.4 mg/mL): 0.25 mm
Lowest Concentration With Observed Inhibition ([8]; E. coli): 0.6 mg/mL
Most Effective Concentration Observed ([8]; E. coli): 1.0 mg/mL
Average CZOI ([9]; 0.6 mg/mL): 1.75 mm
Average CZOI ([9]; 0.8 mg/mL): 2 mm
Average CZOI ([9]; 1.0 mg/mL): 2.75 mm
Average CZOI ([9]; 1.2 mg/mL): 2 mm
Average CZOI ([9]; 1.4 mg/mL): 1.25 mm
Lowest Concentration With Observed Inhibition ([9]; K. pneumoniae): 0.6 mg/mL
Most Effective Concentration Observed ([9]; K. pneumoniae): 1.0 mg/mL
effect on growth of P. acnes on its own ([10]; 0.4 mg/ml): no effect on its own
